Experimental data reported in PubChem BioAssay AID652041 (Broad Institute, 2013).
Activity calls are given as the source filed them.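 How the source made its calls: active means fitted curve reaching a 35% signal drop at a concentration under 10 µM, within twice the top tested dose; inconclusive means no clear call, values can overlap the other calls; inactive means the rest, including activity opposite to the expected direction.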

Assay: antimalarial activity against intraerythrocytic HB3 parasites – HB3 strain, red blood cells, SYBR Green, cherry-picked, dose response (AID 652041);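 further: parasites exposed to compound for 72 hours before the DNA read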
Conditions: P. falciparum HB3 in RBCs, SYBR Green DNA fluorescence; at 50 µM (top of the series)

SMILES	activity change, negative = inhibition
COc1cccc(C(C)=C2SC(=S)NC2=O)c1	-7.61% (inactive)
c1ccc(-c2ccc(OCCCn3cncn3)cc2)cc1	-10.3% (inactive)
CCCSC(=S)c1c(C)[nH]n(-c2ccccc2)c1=O	-14.2% (inactive)
c1ccc(Cn2cc(-c3cccnc3)cn2)cc1	-23.9% (inactive)
COC(OC)c1ccc(C#N)c(SCc2ccccc2)n1	-17.5% (inactive)
Cc1cccc(C)c1N1C(=O)C2ON(c3ccccc3)C(c3ccncc3)C2C1=O (stereo not given)	-11.3% (inactive)
CCCOc1ccc2ccccc2c1/C=C1\SC(=O)NC1=O	-14.8% (inactive)
CC(C)NC(=O)NC(=O)COC(=O)c1ccc([N+](=O)[O-])cc1Cl	-11.6% (inactive)
CC1CCN(c2ccc3c(c2)S(=O)(=O)c2ccccc2C3=O)CC1	-1.13% (inactive)
CCn1c(CNc2ccc(Cl)cc2)nnc1SCc1ccccc1	-25.3% (inactive)
CCCOc1ccc(S(=O)(=O)n2cc(F)c(=O)[nH]c2=O)cc1	-21.3% (inactive)
Nc1nc2sc3c(c2c(=O)s1)CCCC3	-20.8% (inactive)
CCCn1c2ccccc2c2cc(C(=O)O)ccc21	-6.37% (inactive)
COc1ccc(N(C(=O)c2ccncc2)S(=O)(=O)c2ccccc2)cc1	-28% (inactive)
CC1=NN(C(N)=S)C(=O)C1N=Nc1cccc(Cl)c1C (stereo not given)	-12.3% (inactive)
CC1Oc2ccccc2C=C1/C=N/Nc1ccc(C(=O)O)cc1 (stereo not given)	-20.4% (inactive)
CC1(C)CC(=O)C(N=Nc2ccc3ncsc3c2)=C(O)C1	-23.1% (inactive)
Clc1ccc(-c2n[nH]c3c2CCC3)cc1Cl	-19.3% (inactive)
O=C(O)c1c(NC(=O)N2CCCC2)sc2c1CCCC2	-0.929% (inactive)
O=C1N(c2ccc(Cl)cc2)C(c2cccnc2)N2CCCN12 (stereo not given)	-10.4% (inactive)
CC(C)CSc1n[nH]c(=S)s1	1.38% (inactive)
Cc1cc(NS(=O)(=O)c2ccc(C3CCCCC3)cc2)no1	0.534% (inactive)
COc1cc2c(c(OC)c1OC)-c1ccc(O)c(=O)cc1[C@@H](NC(C)=O)CC2	-18.5% (inactive)
CCOC(=O)c1ccc(N2C(=O)CC(N3CCC(O)(c4ccc(Cl)cc4)CC3)C2=O)cc1 (stereo not given)	-5.74% (inactive)
CC12CCC(O)CC1=CCC1C2CCC2(C)C3=NN=CC3CC12 (stereo not given)	-17.5% (inactive)
